The text below walks through data of patent publication US12318452B2, “Degraders of WEE1 kinase” (DANA-FARBER CANCER INSTITUTE, INC., priority 2018, dated 2025).

In test [1] the target is T1, PLK1 (Homo sapiens, UniProt P53350). The test can be described thus: Z′-LYTE kinase activity assay for PLK1. The class given is biochemical. Also on record: purchased Life Technologies (Invitrogen) commercial assay service. Conditions: Km ATP, average of two replicates ± SD. As for the experimental part:
LanthaScreen™ assays were conducted for Wee1 in a 10-point dose response as performed in the commercial assay service by Life Technologies™. Z′-LYTE™ assays were conducted for PLK1 as performed in the commercial assay service by Life Technologies™ in a 10-point dose response using Km ATP concentrations.
The selectivity of Wee1 degradation was then assessed by performing multiplexed mass spectrometry (MS)-based proteomics in MOLT4 cells treated with 100 nM of compound 13 for 2 hours (Donovan et al., Elife 7:e38430 (2018)).

For the next test, the target named is Wee1 (Homo sapiens, UniProt P30291). In words: Wee1 degradation immunoblot in MOLT4 cells, 5-hr dose response and time course. In kind it is cell-based. Also on record: endogenous in cells; host or cells: MOLT4 (wild type; CRBN-/- as control). Conditions: for Wee1 degradation: 5-hr exposure, 100 nM-10 μM. The procedure:
(§1) Whole cell lysates for immunoblotting were prepared by pelleting cells from each cell line at 4° C. (300 g) for 5 minutes. The resulting cell pellets were washed 1× with ice-cold PBS and then resuspended in RIPA lysis buffer (Sigma, cat #R0278) supplemented with protease and phosphatase inhibitor tablets (Roche cat #4906845001). Lysates were clarified at 14,000 rpm for 15 minutes at 4° C. prior to quantification by BCA assay (Pierce™, cat #23225). Whole cell lysates were loaded into Bolt 4-12% Bis-Tris Gels (Thermo Fisher, cat #NW04120BOX) and separated by electrophoreses at 95 V for 1.5 hours. The gels were transferred to a nitrocellulose membrane using the iBlot® Gel Transfer at P3 for 7 minutes (Thermo Fisher, cat #IB23001) and then blocked for 1 hour at room temperature in Odyssey® blocking buffer (LICOR® Biosciences, cat #927-50010). Membranes were probed using antibodies against the relevant proteins at 4° C. overnight in 20% Odyssey® Blocking Buffer in 1×TBST. Membranes were then washed three times with 1×TBST (at least 5 minutes per wash) followed by incubation with the IRDye® goat anti-mouse (LICOR®, cat #926-32210) or goat anti-rabbit (LICOR®, cat #926-32211) secondary antibody (diluted 1:10,000) in 20% Odyssey® Blocking Buffer in 1×TBST for 1 hour at room temperature. After three washes with 1×TBST (at least 5 minutes per wash), the immunoblots were visualized using the ODYSSEY® Infrared Imaging System (LICOR®).
(§2) MOLT4 cells were plated at 1.5 million cells per well in a 6-well plate, with 3 mL of media per well. Cells were then immediately treated with the indicated concentration of the indicated compound and incubated for the indicated amount of time. Cells were collected by transferring each well to a 15 mL conical, centrifuging (1000 rpm for 3 min), then washing the cell pellet 2× with cold PBS. Each cell pellet was then lysed in 100 μL of RIPA lysis buffer (+protease/phosphatase inhibitors). Samples were normalized and prepped in 4×LDS+10% β-mercaptoethanol and boiled for 5 min at 95° C. Lysates were probed for specified proteins by western blotting using the Bolt® system (Life Technologies™)
To confirm that compound 13-mediated Wee1 degradation is CRBN dependent (FIG. 1D), Wee1 degradation profiles in parental versus CRBN^−/− MOLT4 cells were compared. In parental MOLT4 cells, compound 13 induced potent Wee1 degradation after 5 hours, with maximal degradation observed at 100 nM and a “hook effect” apparent at the top concentration of 10 μM, where compound 13:CRBN and compound 13-Wee1 binary complexes inhibit the formation of a productive ternary complex (Toure and Crews, Angew. Chem. 55:1966-1973 (2016)).
To evaluate the kinetics of Wee1 degradation, a time course study was performed in MOLT4 cells using 100 nM compound 13. Degradation occurred rapidly, with over 50% degradation achieved within 30 min, and complete degradation reached by 3 hr (FIG. 4C).
On the technique in general: In western blotting, separated proteins are transferred to a membrane and probed.

Test [2] deals with T1, PLK1. In words: PLK1 level by immunoblot in MOLT4 cells. In kind it is cell-based. The procedure: as §2
Immunoblotting: Cells were washed with phosphate-buffered saline (PBS) and then lysed using radioimmunoprecipitation assay (RIPA) buffer supplemented with protease and phosphatase inhibitor cocktail (Roche) on ice for 15 minutes. The lysates were centrifuged at 14,000 rpm for 15 minutes at 4° C. and protein was quantified by bicinchoninic acid (BCA) assay (Pierce™). […]
FIG. 2A is an immunoblot showing that compound 13 degraded Wee1 after a 6-hour treatment in MOLT4 cells, and induced the downstream changes expected from Wee1 loss—including a decrease in phosphorylated cyclin-dependent kinase 1 (pCDK1) (Y15) and an increase in pH 3. […] Proteins of interest were then assessed by western blotting.

The subject of test [3] is Ikaros (IKZF1), Aiolos (IKZF3). The test can be described thus: IKZF1 and IKZF3 degradation by immunoblot in MOLT4 cells. The class given is cell-based. As for the experimental part: as §1, with “After three washes with 1×TBST (at least 5 minutes per wash), the immunoblots were visualized using the ODYSSEY® Infrared Imaging System (LICOR®).” left out
Where [4] appears, read: 100 nM, MOLT4 cells, time course.

T1 sequence (P53350 whole entry): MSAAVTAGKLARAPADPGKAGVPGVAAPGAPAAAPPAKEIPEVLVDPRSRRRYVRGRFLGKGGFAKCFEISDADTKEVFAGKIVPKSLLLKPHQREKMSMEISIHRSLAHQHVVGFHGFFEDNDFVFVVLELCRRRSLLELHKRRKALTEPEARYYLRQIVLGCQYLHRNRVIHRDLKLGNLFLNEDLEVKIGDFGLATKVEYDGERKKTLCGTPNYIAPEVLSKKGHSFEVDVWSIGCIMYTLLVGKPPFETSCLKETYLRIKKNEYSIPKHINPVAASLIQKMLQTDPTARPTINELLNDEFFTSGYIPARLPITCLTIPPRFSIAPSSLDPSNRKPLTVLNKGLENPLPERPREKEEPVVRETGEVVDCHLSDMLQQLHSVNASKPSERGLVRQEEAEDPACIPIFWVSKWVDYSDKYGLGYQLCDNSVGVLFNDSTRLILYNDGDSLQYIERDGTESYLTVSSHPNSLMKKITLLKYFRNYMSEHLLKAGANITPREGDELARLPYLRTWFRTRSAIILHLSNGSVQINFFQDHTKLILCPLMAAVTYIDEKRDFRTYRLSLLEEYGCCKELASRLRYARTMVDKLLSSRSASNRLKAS
Chain of Wee1 (P30291 whole entry): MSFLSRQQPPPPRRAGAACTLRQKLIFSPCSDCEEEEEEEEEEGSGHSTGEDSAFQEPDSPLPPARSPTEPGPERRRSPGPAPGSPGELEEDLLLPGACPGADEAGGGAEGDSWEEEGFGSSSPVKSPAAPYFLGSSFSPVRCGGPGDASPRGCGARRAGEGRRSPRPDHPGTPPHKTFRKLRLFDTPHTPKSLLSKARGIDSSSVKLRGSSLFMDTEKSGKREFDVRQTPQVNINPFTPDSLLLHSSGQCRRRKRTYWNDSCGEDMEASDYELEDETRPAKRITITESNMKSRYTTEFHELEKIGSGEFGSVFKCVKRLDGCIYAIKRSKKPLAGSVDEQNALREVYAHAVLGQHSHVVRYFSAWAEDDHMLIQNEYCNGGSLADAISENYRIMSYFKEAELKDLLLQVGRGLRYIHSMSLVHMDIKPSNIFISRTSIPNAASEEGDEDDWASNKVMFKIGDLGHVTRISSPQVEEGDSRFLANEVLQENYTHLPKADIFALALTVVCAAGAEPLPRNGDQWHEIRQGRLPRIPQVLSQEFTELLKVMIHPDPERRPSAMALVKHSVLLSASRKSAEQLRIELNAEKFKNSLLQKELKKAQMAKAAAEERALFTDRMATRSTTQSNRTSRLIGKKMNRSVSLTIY

In the case of `C=CCn1c(=O)c2cnc(Nc3ccc(N4CCN(CCCNc5cccc6c5C(=O)N(C5CCC(=O)N(C)C5=O)C6=O)CC4)cc3)nc2n1-c1cccc(C(C)(C)O)n1` (stereo not drawn) [Compound 20, 4-((3-(4-(4-((2-allyl-1-(6-(2-hydroxypropan-2-yl)pyridin-2-yl)-3-oxo-2,3-dihydro-1H-pyrazolo[3,4-d]pyrimidin-6-yl)amino)phenyl)piperazin-1-yl)propyl)amino)-2-(1-methyl-2,6-dioxopiperidin-3-yl)isoindoline-1,3-dione], the IC50 at PLK1 [1] worked out at 43 ± 4 nM. Moreover, on Wee1 (setting [4]), the “Effect on Wee1 protein levels over time” value is “no effect on Wee1 protein levels”. At Wee1 (MOLT4 cells), the Wee1 degradation entry is listed as “did not degrade Wee1”.
Consider `C=CCn1c(=O)c2cnc(Nc3ccc(N4CCN(CCCNc5cccc6c5C(=O)N(C5CCC(=O)NC5=O)C6=O)CC4)cc3)nc2n1-c1cccc(C(C)(C)O)n1` (stereo not drawn) [Compound 13, 4-((3-(4-(4-((2-allyl-1-(6-(2-hydroxypropan-2-yl)pyridin-2-yl)-3-oxo-2,3-dihydro-1H-pyrazolo[3,4-d]pyrimidin-6-yl)amino)phenyl)piperazin-1-yl)propyl)amino)-2-(2,6-dioxopiperidin-3-yl)isoindoline-1,3-dione], for which the PLK1 degradation result at PLK1 [2] (6-hour treatment) is “not degraded”. For the same compound, the PLK1 levels entry at PLK1 [2] (treated for up to 48 hrs) was “not reduced”. Besides, the “IKZF1 / IKZF3 degradation after 24 hrs” value in test [3] (24 hrs of drug exposure) was “degradation of both IKZF1 and IKZF3 was apparent”. The “IKZF1 / IKZF3 degradation at short time points” value in test [3] (short time points (5-hour)) is given as “no degradation of either IKZF1 or IKZF3”. Further, the IC50 against PLK1 [1] came to 102 nM. For the same compound, the “Time to complete Wee1 degradation” value on Wee1 (100 nM, MOLT4 cells) was not above 3 h. Besides, at Wee1 (setting [4]), the “Wee1 degradation achieved within 30 min” value is given as “over 50%”. On Wee1 (CRBN−/− MOLT4 cells, 5 hours), the “Effect on Wee1 abundance in CRBN−/− cells” value is “no effect on Wee1 abundance”. Further, the Wee1 degradation entry on Wee1 (MOLT4 cells) was “degraded Wee1”. The “Concentration giving maximal (sufficient) Wee1 degradation” value on Wee1 (MOLT4 cells, 5-hr treatment) is 100 nM. Moreover, the “Concentration at which hook effect is apparent” value on Wee1 (parental MOLT4 cells, 5 hours) worked out at 10 µM. In addition, the “Duration of sustained loss of Wee1” value at Wee1 (single 100 nM treatment, MOLT4 cells) is listed as “at least 48 hrs”.

By IC50 is commonly meant the concentration that inhibits the measured activity by half.
